Laboratory results taken from patent publication US20100234238A1, “METHOD FOR PROFILING KINASE INHIBITORS” (Janssen Pharmaceutica N V, priority 2006, published 2010).

Key:
EGFR L858R = EGFR L858R (Homo sapiens, UniProt P00533, L858R); experiment: IC50 on mutant EGFR; assay type: biochemical
Her2 = Her2 (Homo sapiens, UniProt P04626); experiment: Her2 inhibition; assay type: biochemical
[1] = system: 27 cell lines, representing diverse cancer cell types; experiment: Inhibition of proliferation of cell lines in vitro (response status); assay type: cell-based; design: key: R = Responder to MTKI; NR = Non-Responder to MTKI; details: MTKI
Procedure: It was tested whether the Pamchip peptide arrays are a useful tool to predict the response of a cell line to the multi-targeted kinase inhibitor, MTKI. MTKI inhibits the proliferation of a range of cell lines in vitro with widely varying IC50's. The lysates prepared from these 27 cell lines, representing diverse cancer cell types, were profiled on the peptide arrays in the absence or presence of 5 μM MTKI, in 6 replicates for each condition. In this panel, 13 cell lines were defined as responder cell lines (IC50<3 μM; cell lines are ordered according to increasing IC50 in Example 1, whereas 14 cell lines are classified as ‘non-responder’ cell lines (IC50>10 μM). Intermediary cell lines and cell lines with highly variable IC50 measurements were omitted from the analysis. The experiment included the highly responsive H3255 lung cancer cell line, which overexpresses mutant EGFR L858R. This mutant variant is highly responsive to MTKI, which is an ATP-competitive compound that binds to the active conformation of EGFR (similar to erlotinib and gefitinib). Accordingly, the most profound changes induced by MTKI in lysate kinase activity can be observed for this highly responsive cell line. To identify those peptides for which the inhibition of phosphorylation by MTKI correlates well with the response status of the cell line from which the lysate was prepared, a statistical mixed-model was set up to identify those peptides that are most likely to change after MTKI treatment in responder cell lysates compared to non-responder lysates, taken into account the inter-replicate variability (see the material and methods section for a more detailed description of the statistical test). […] To illustrate that the inhibition of the phosphorylation of these peptides in a given lysate does indeed correlate with the response of the corresponding cell line to MTKI, the following cut-off was chosen to classify responders and non-responders: minimally 4 peptides out of the 16 peptide list should be inhibited with a ratio of less than 0.8 (more than 20% inhibition) to classify as a responder. Applying this rule to all 27 cell lines indicates an overall classification accuracy of 82% (with 78% sensitivity, and 86% specificity). […] Note that the use of these […] peptides as a classification tool can be optimized according to the required sensitivity and specificity.

xenograft tumors = experiment: Response of subcutaneous xenograft tumors to MTKI in vivo; design: species or system nude immuno-compromised mice; key: R = Responder to MTKI; NR = Non-Responder to MTKI
Procedure: To explore whether a similar approach allows for the classification of responder and non-responder tumors, the same strategy as above was applied to 12 different xenograft tumors, which were subcutaneously grown in nude immuno-compromised mice from human cancer cell lines. […] Lysates were made from homogenized frozen tumor blocks and analyzed in the absence or presence of 5 μM MTKI, as before.

[2] = system: 27 cell lines, representing diverse cancer cell types; experiment: Inhibition of proliferation of cell lines in vitro (response status); assay type: cell-based; design: key: R: A responder is predicted when minimally 4 peptides have a ratio <0.8; NR = Non-Responder to MTKI; details: MTKI
Procedure: It was tested whether the Pamchip peptide arrays are a useful tool to predict the response of a cell line to the multi-targeted kinase inhibitor, MTKI. MTKI inhibits the proliferation of a range of cell lines in vitro with widely varying IC50's. The lysates prepared from these 27 cell lines, representing diverse cancer cell types, were profiled on the peptide arrays in the absence or presence of 5 μM MTKI, in 6 replicates for each condition. In this panel, 13 cell lines were defined as responder cell lines (IC50<3 μM; cell lines are ordered according to increasing IC50 in Example 1, whereas 14 cell lines are classified as ‘non-responder’ cell lines (IC50>10 μM). Intermediary cell lines and cell lines with highly variable IC50 measurements were omitted from the analysis. The experiment included the highly responsive H3255 lung cancer cell line, which overexpresses mutant EGFR L858R. This mutant variant is highly responsive to MTKI, which is an ATP-competitive compound that binds to the active conformation of EGFR (similar to erlotinib and gefitinib). Accordingly, the most profound changes induced by MTKI in lysate kinase activity can be observed for this highly responsive cell line. […]

Her2, sequence (P04626 23-1255): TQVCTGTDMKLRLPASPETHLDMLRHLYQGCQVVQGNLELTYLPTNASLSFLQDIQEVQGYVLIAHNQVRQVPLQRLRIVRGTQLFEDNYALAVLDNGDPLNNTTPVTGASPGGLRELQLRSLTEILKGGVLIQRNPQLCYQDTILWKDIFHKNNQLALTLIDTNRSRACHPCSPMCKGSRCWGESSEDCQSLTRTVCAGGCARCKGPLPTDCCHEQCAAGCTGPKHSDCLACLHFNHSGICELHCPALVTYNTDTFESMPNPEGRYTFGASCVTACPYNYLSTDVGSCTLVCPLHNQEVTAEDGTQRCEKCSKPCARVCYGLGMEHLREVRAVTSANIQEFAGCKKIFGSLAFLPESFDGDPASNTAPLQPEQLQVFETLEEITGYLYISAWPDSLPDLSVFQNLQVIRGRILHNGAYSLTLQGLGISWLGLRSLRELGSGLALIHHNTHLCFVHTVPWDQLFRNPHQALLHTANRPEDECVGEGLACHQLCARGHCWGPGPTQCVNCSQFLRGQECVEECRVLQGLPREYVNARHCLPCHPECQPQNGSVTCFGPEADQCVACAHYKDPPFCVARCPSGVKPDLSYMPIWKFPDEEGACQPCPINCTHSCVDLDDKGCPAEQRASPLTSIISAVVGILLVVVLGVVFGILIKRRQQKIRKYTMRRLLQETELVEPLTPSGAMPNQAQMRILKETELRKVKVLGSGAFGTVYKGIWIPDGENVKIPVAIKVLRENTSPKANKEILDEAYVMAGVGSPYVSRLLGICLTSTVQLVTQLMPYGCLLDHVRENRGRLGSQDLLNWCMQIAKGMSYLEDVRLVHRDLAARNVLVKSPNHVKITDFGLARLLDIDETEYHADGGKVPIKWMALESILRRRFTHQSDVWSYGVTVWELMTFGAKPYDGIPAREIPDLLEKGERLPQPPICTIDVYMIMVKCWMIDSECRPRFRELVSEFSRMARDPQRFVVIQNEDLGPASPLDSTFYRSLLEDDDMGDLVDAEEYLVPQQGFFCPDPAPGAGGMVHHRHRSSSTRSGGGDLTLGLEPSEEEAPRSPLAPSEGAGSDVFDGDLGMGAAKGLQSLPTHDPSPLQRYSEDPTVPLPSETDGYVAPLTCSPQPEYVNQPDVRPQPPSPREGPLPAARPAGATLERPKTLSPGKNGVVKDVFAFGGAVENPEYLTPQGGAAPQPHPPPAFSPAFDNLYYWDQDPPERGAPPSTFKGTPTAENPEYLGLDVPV
EGFR L858R, sequence (P00533 25-1210 L858R): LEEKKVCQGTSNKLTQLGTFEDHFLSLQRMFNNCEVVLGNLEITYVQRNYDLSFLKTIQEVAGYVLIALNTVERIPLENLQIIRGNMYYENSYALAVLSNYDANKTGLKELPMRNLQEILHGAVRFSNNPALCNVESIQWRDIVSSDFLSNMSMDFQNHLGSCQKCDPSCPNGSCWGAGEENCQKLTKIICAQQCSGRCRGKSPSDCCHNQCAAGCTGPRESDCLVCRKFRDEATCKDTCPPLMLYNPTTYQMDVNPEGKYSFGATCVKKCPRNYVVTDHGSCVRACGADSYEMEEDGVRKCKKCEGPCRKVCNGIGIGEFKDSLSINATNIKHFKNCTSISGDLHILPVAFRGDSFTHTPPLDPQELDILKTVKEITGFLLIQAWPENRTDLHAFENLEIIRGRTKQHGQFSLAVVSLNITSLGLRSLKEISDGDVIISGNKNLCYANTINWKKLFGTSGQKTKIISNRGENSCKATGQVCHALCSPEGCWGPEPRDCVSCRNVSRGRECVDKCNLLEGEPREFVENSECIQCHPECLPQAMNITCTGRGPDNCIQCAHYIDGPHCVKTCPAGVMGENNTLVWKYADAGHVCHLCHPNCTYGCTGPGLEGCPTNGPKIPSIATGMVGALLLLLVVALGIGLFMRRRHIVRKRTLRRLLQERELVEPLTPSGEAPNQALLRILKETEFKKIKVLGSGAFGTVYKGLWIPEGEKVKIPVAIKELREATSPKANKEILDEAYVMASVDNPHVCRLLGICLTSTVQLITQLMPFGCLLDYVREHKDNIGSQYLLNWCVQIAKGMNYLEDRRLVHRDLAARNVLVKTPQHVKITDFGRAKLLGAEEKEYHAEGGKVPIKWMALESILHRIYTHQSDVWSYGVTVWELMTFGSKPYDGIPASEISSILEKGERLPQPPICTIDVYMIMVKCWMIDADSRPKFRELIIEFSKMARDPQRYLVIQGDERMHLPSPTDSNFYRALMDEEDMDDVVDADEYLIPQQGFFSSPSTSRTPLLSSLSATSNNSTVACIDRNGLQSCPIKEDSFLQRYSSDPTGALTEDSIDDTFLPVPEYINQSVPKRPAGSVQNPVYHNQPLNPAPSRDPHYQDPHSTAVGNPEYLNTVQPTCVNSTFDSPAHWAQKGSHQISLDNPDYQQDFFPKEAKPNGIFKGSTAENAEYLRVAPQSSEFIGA

IC50 on EGFR 1858R compared to Tarceva (EGFR L858R): lower IC50 | inhibition of Her2 compared to Tarceva (Her2): better inhibitor than Tarceva
SMILES: COc1cc2ncnc3c2cc1OCCCCCN(C)Cc1ccc(Br)cc1N3 [MTKI, 4,6-ethanediylidenepyrimido[4,5-b][6,1,12]benzoxadiazacyclopentadecine, 17-bromo-8,9,10,11,12,13,14,19-octahydro-20-methoxy-13-methyl-]
response status ([1]; A431 cell line): R | response status ([1]; DU145 cell line): R | response status ([1]; H2009 cell line): R | response status ([1]; H3255 cell line): R | response status ([1]; N87 cell line): R | response status ([1]; SKBR3 cell line): R | response status ([1]; SUM149 cell line): R | response status (xenograft tumors; A431 xenograft tumor): R | response status (xenograft tumors; BT474 xenograft tumor): R | response status (xenograft tumors; DU145 xenograft tumor): R | response status (xenograft tumors; H322 xenograft tumor): R | response status (xenograft tumors; H3255 xenograft tumor): R | response status (xenograft tumors; SUM149 xenograft tumor): R | response status ([2]; GTL16 cell line): NR | response status ([2]; MOLT4 cell line): NR
